Laboratory results as given in paper PMC1810525, “Antagonism of the prostaglandin D2 receptor CRTH2 attenuates asthma pathology in mouse eosinophilic airway inflammation” (Respiratory Research, 2007).
Where two headings read alike, the source gives them in different places.

Tests used:
mCRTH2 [1] = target: T1, mCRTH2 (Mus musculus, UniProt Q9Z2J6); assay: mCRTH2 whole cell competition binding ([3H]PGD2); conditions: displacement of [3H]PGD2, mCRTH2-HEK cells
T1 construct: expressed in transfected cells
T1 sequence (Q9Z2J6 1-382): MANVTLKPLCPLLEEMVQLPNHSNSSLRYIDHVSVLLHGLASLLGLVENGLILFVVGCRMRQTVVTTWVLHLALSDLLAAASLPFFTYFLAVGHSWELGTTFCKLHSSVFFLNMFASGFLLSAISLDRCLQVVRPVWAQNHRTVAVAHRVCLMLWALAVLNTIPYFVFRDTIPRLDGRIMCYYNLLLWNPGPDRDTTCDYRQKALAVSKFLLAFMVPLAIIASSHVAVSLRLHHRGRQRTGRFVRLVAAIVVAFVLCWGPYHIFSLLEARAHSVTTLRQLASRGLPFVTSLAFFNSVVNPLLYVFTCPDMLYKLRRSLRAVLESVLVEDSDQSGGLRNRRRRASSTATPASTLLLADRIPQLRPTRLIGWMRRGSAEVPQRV
Source text: (§1) The coding sequence of mCRTH2 (genbank accession no. AF054507) was amplified by PCR from mouse hippocampus cDNA and inserted into the pcDNA3.1(+) expression vector (invitrogen). A HEK293 cell line, stably expressing mCRTH2 (hereafter referred to as mCRTH2-HEK cells) was generated under G418 (Gibco #11811) selection and used as described below in whole cell binding and functional inositol phosphate accumulation assays. The coding sequence of mTP (genbank accession no. D10849) was amplified by PCR from mouse spleen cDNA and inserted into pcDNA3.1(+). HEK293 cells were transiently transfected with mTP as described and assayed after 48 hr as outlined below.
Binding assays were performed essentially as described previously. In brief, mCRTH2-HEK cells or HEK cells transiently transfected with mTP were seeded into white 96 well plates (Costar #3917) at a density of 30.000 cells/well. About 18–24 hr later, whole cell competition binding experiments were performed using 0.8 nM [^3H]PGD2 (Amersham #TRK734, 166 Ci/mmol) or 0.7 nM [^3H]SQ29548 (PerkinElmer #NET-936, 48.2 Ci/mmol), for mCRTH2 and mTP respectively. Total and nonspecific binding were determined in the absence and presence of 10 μM PGD2 for mCRTH2 and 10 μM U46619 for mTXA2 receptors.
(§2) was performed using the Prism 3.0 software (GraphPad Software, San Diego) as described previously with the following exceptions: Binding data from competition binding assays were normalized to percent of specific binding of [^3H]PGD2 or [^3H]SQ29548 and the Ki was then determined using the Cheng-Prusoff equation Ki = IC50/(1+L/Kd), where L is the concentration of radioactive ligand and Kd is its dissociation constant. For Schild analysis, global fitting using the Gaddum/Schild competitive interaction model was applied after the functional concentration-response curves for the agonists PGD2 or U46619 in the absence or presence of various antagonist concentrations were normalized to percent of the maximal response obtained by agonist alone.

mCRTH2 [2] = target: T1, mCRTH2; assay: Inositol phosphate accumulation assay, mCRTH2-HEK cells (Schild analysis vs PGD2); assay type: cell-based; conditions: PGD2 concentration-response, InsP
Source text: as §1
mCRTH2-HEK or HEK cells transiently transfected with mTP were seeded at a density of 30.000 cells/well in poly-D-lysine coated 96-well tissue culture plates and labeled by overnight incubation in medium containing 5 μCi myo- [2-^3H]-inositol (TRK911, Amersham Biosciences). After washing, cells were stimulated with the respective ligands in the presence of 5 mM LiCl (HBSS, GIBCO cat. 14025–050, 45 min, 37°C) and the inositol phosphate fraction was quantified using a scintillation proximity assay (SPA) as described previously. To facilitate inositol phosphate generation by the Gi-selective CRTH2 receptor, mCRTH2-HEK cells were transiently transfected with a promiscuous Gα protein [29].
as §2

[3] = tested on: OVA-challenged BALB/c mice; assay: Mouse model of allergic asthma (OVA), bronchoalveolar lavage eosinophils; assay type: in vivo; conditions: 5 mg/kg orally twice daily, 24 hr after second challenge, allergen/vehicle 1.0 ± 0.2 %
Source text: Female BALB/c mice about 6 weeks of age (MoB A/S; Ry, Denmark) were kept in well-controlled animal housing facilities and fed ad libitum. The study was approved by the Regional Ethics Committee in Malmoe-Lund, Sweden. […] Sigma) at day 0 as described previously. […] Control animals received saline challenge. Animals were sacrificed 24 hr after the last allergen challenge by pentobarbital i.p followed by bronchoalveolar lavage (BAL) and lung tissue sampling. In preliminary studies it was ascertained that daily allergen challenges for only a few days sufficed to produce a significant airway tissue eosinophilia as well as goblet cell hyperplasia. On days 14 and 15 mice were treated twice daily with TM30089 and ramatroban (BAY3405), 5 mg/kg orally. […] Drugs were administered 30 minutes before and 4 hr after each challenge. The dose of ramatroban was selected in accord with previous reports. […] The total number of cells was quantified using a […] (NucleoCounter®, Chemometec A/S, Allerod, Denmark) and 5 × 10^5 cells cytocentrifuged to microscope slides. Differential cell counts were performed on May-Grünwald Giemsa stained slides and percentage of eosinophils, lymphocytes, neutrophils, and macrophages determined by counting 200–300 cells in a blinded manner. […]

Structure (SMILES) | pKi mCRTH2 (mCRTH2 [1]) | Ki (mCRTH2 [1]; printed in brackets after pKi, read-out: Ki mCRTH2) | Schild slope mCRTH2 (mCRTH2 [2]) | pA2 mCRTH2 (mCRTH2 [2]) | BALF eosinophils [3] | Ki (mCRTH2 [1]; read-out: pKi mCRTH2 (converted)) | Kb (mCRTH2 [2]; read-out: pA2 mCRTH2 (converted))
CN(C1CCc2c(c3ccccc3n2CC(=O)O)C1)S(=O)(=O)c1ccc(F)cc1 (stereo not drawn) [TM30089] | 8.96 ± 0.05 | 1.1 nM | 1.45 ± 0.08 | 9.15 ± 0.11 | 0.5 ± 0.01% |  | 
O=C(O)CCn1c2c(c3ccccc31)C[C@H](NS(=O)(=O)c1ccc(F)cc1)CC2 [ramatroban, reference compound] |  |  | 0.94 ± 0.05 |  | 0.4 ± 0.01% | 4.17 nM | 8.32 nM
